The values that follow come from paper PMC9845330 (Communications Biology, 2023).

Non-standard residues stand in square brackets, D forms with d. Residues, ends and D or L forms follow the SMILES beside them. *: point of attachment. X1 = O=C(CCCC[C@@H]1SC[C@@H]2NC(=O)N[C@@H]21)NCCCOCCOCCOCCCN*; PEG12 = NCCOCCOCCOCCOCCOCCOCCOCCOCCOCCOCCOCCOCCC(=O)O

The subject of series [1] is H1299 cells. The experiment in a line: Cell internalization by flow cytometry, absolute uptake (molecules per cell) of peptide-streptavidin-Alexa Fluor 647. It is filed as cell-based, human. Particulars: for Molecules Internalized Per Cell: Average. The source says: Optimizing MGS4 as a monomer is efficient but the optimal valency of the truncated peptide may be different than that of the full-length peptide. The peptide was synthesized as a monomer (MGS4_V8), dimer (MGS4_V9), and tetramer (MGS4_V10). To obtain quantitative data, we moved from measuring the relative fluorescence of dye-labeled peptide to the determination of the average number of dye molecules internalized per cell. […] The dimer MGS4_V9 has an EC50 7-fold lower indicating there is a synergistic effect in going from a monomer to a dimer (Fig. 2a and Table 2). However, there is only a 2-fold decrease in going from a dimer to a tetrameric peptide (MGS4_V10). We also calculated the EC50 on three other NSCLC cell lines (Table 2 and Supplementary Figure 3). […] The average number of peptides internalized per cell at saturating conditions varies, with H1993 cells internalizing the highest number of peptides at all three valencies (Table 2). This is likely due to differing levels of receptor expression on the cell type. The average molecules internalized at 50 nM in one hour follows the same trend (Fig. 2b).
Non-internalized peptide was removed, and the mean number of peptides internalized per cell was determined to calculate the EC50. Individual measurements are shown. The mean is shown as an “X”. Error bars, in black, represent standard error measurements and are below the height of the symbols in some cases. b The average number of peptide molecules per cell at 50 nM at 1 h was determined on four NSCLC cell lines and one normal human bronchial epithelial cell line (HBEC). Error bars represent SEM and individual data points are shown. c H1299 cells were incubated with 50 nM peptide-Streptavidin-Qdot605 for 1 h, removed, and replaced with normal growth media. After 24 h, cells were fixed, and counterstained with DAPI (blue). Representative maximally projected z-stacks for each group reveal no apparent difference in peptide internalization or localization. The scale bar represents 10 µm.
Biotinylated peptide was conjugated to streptavidin-R-phycoerythrin or streptavidin-Alexa Fluor 647 (1:1 molar ratio) for 30 min. The open binding sites on streptavidin were quenched with RPMI 1640 and diluted to the indicated concentration. Tumor cells were grown to 90% confluency in a 12 well plate, then incubated with 500 µl peptide-dye conjugate at 37 °C. After 1 h, peptide was removed, and the cells were washed 3x with PBS (137 mM NaCl, 2.7 mM KCl, 10 mM Na2HPO4, 1.8 mM KH2PO4, pH 7.4), 2x with 0.1 M HCl-glycine pH2.2 in 0.9% NaCl, and 1x PBS rinse. Cells were removed by trypsinization. Flow cytometry was performed on a BD FACSCelesta, and data were analyzed on Flowing software. Cells were gated based on the forward and side scatter to include only viable cells and a minimum of 10,000 events were counted. A region containing <5% of the cells in the negative control was established, and relative peptide uptake by the mean fluorescence intensity of that population. For absolute peptide uptake per cell, a standard curve was generated using Quantum™ Alexa Fluor 647 microspheres (Bangs Laboratory, Fishers, IN). A representative linear regression showing the correlation of molecule equivalents soluble fluorophores (MESF) vs the mean fluorescence intensity (MFI) is shown in Supplemental Figure 6. Cells were gated based on the forward and side scatter to include only viable cells and a minimum of 10,000 events were counted. MFI was determined at 50% at peak height. Molecules internalized per cell were determined by the standard curve relating MESF to MFI and divided by the number dye molecules/MGS conjugate. An example is shown in supplemental Figure 7. GraphPad Prism® was used for non-linear regression curve fitting to calculate an EC50. Parameters and statistical analysis are provided (Supplementary Tables 2–6). Experiments were repeated a minimum of three times. […]

Series [2] relates to HBEC cells. The experiment in a line: In vitro saporin delivery, cell viability (CellTiter-GLO). Format: cell-based, human. Particulars: saporin conjugate, 6 h exposure, viability at 72 h. As to the method:
The ability of MGS4_V8-saporin conjugate to induce cell death was determined.
Biotinylated peptide was conjugated to streptavidin-saporin (Advanced Targeting Systems Bio, San Diego, CA) in a 1:1 molar ratio. Increasing doses of peptide-drug conjugate in triplicate were incubated on the cells for 6 h at 37 °C. The drug was removed and replaced with complete growth media. After 72 h, cell viability was measured using CellTiter-GLO® (Promega, Madison, WI). Cell viability was normalized to untreated cells. IC50s were calculated using GraphPad Prism® using log(agonist) vs. response–Variable slope (four parameters). […]
M GS4_V4 (non-acetylated, panel a) and M GS4_V8 (acetylated, panel b ) were incubated in 100% human serum for 0 and 48-hours. Serum proteins were precipitated, and the peptide was analyzed by analytical
HPLC. The mass of the peptide and degradation products were determined by MALDI MS and are […]
MGS4_V8, MGS4_V9, or MGS4_V10 were conjugated with streptavidin-Alexa Fluor 650 and were incubated with the indicated cell line for 1 hour. Non-internalized peptide was rem ov ed, and the mean number of peptides internalized per cell was determined to calculate the EC50. […]
Supplemental Figure 4 : Peptide-Streptavidin conjugates are nontoxic to cells. a. […] After 72 hours, viability was measured. […]

For `CC(=O)N[C@@H](Cc1ccccc1)C(=O)N[C@@H](Cc1c[nH]cn1)C(=O)N[C@@H](C)C(=O)N[C@H](C(=O)N1CCC[C@H]1C(=O)N[C@@H](CCC(N)=O)C(=O)N[C@@H](CO)C(=O)N[C@@H](Cc1ccccc1)C(=O)N[C@@H](Cc1ccc(O)cc1)C(=O)N[C@H](C(=O)NCCOCCOCCOCCOCCOCCOCCOCCOCCOCCOCCOCCOCCC(=O)N[C@@H](CCC(=O)NCCCOCCOCCOCCCNC(=O)CCCC[C@@H]1SC[C@@H]2NC(=O)N[C@@H]21)C(N)=O)[C@@H](C)O)C(C)C` [MGS4_V8] (Ac-FHAVPQSFYT[PEG12]E(X1)-NH2), the stable in human serum for is greater than 48 h. For the same compound, the “Molecules Internalized Per Cell” value in series [1] (0.01 nM) is 0. Also, the “Molecules Internalized Per Cell” value in series [1] (1 nM) was 88. For the same compound, the “Molecules Internalized Per Cell” value in series [1] (10 nM) was 3648. In addition, in series [1] (20 nM), the “Molecules Internalized Per Cell” value is on record as 3316. Also, the “Molecules Internalized Per Cell” value in series [1] (30 nM) came out at 10700. Further, in series [1] (40 nM), the “Molecules Internalized Per Cell” value was found to be 21020. Also, the “Molecules Internalized Per Cell” value in series [1] (50 nM) was 36807. For the same compound, in series [1] (H1299 Cells, peptides internalized per cell at saturation), the “Saturation (molecules)” value is on record as 40,400 ± 5100 molecules. Besides, in series [1] (Supplementary Table 3), the HillSlope turned out to be 5.657 and the LogIC50 is given as -7.417. In addition, the Top in series [1] (Supplementary Table 3, molecules per cell) stood at 40400. In series [2], the IC50 entry is recorded as “do not reach 50% cell viability”.
